Source: patent US20070129439A1, “COMPOSITIONS CONTAINING SUBSTITUTED QUINOLINES AND SUBSTITUTED DIPHENYL SULFONES AND METHODS OF USE” (priority 2003, published 2007)

Tested on: neurons
Assay: % neuron loss for test agents in a rat model with Alzheimer's disease (FIG. 1)
Type: in vivo
Settings: rat model with AD
From the text: FIG. 1 is a plot of % neuron loss for several test agents in a rat model with Alzheimer's disease (AD).

Row | SMILES | % neuron loss (killing effect) (hydroxychloroquine alone at 6.5 mg/kg) | % neuron loss (killing effect) (dapsone alone at 2 mg/kg)
1 | CCN(CCO)CCCC(C)Nc1ccnc2cc(Cl)ccc12 (centres unmarked) [hydroxychloroquine] | suppression of the in vitro killing effect | 
2 | Nc1ccc(S(=O)(=O)c2ccc(N)cc2)cc1 [dapsone, 4,4′-diaminodiphenylsulfone] |  | suppression of the in vitro killing effect
